Assay results from ChEMBL document CHEMBL1201862, “PubChem BioAssay data set” (2004).
Activity calls are given as the source filed them. Cut-off read from the data, not from the text of the source, for most assays here: actives have a measured EC50 and inactives only a lower limit.

Legend:
[1] = molecular target: T1, Replicative DNA helicase DnaB (Mycobacterium tuberculosis, UniProt P9WMR3); assay: DnaB intein splicing inhibitors, dose response, biochemical, cell-free fluorescence (AID 449749); format: functional
T1 sequence (P9WMR3 whole entry): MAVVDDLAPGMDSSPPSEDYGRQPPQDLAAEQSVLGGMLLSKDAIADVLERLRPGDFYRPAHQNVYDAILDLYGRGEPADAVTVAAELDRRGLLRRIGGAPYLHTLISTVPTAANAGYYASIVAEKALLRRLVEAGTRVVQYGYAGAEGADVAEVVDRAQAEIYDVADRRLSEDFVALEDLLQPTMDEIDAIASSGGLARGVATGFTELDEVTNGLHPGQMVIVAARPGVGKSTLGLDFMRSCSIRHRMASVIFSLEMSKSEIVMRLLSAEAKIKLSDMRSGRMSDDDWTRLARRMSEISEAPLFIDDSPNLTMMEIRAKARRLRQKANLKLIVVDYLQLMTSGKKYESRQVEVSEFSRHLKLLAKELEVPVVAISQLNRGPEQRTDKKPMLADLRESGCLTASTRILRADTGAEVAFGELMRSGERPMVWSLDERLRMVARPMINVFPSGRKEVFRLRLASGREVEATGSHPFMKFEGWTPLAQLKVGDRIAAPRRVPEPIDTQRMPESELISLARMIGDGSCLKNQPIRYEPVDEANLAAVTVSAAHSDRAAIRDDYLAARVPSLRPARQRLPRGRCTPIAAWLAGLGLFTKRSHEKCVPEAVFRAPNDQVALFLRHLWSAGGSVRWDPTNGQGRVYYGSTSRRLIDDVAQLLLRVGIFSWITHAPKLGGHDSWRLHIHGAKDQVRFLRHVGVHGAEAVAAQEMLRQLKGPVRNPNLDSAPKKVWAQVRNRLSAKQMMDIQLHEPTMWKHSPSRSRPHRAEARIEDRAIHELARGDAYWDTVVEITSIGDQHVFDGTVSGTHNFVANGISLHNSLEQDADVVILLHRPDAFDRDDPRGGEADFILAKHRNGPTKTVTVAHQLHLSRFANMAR

Protein RecA = molecular target: T2, Protein RecA (Mycobacterium tuberculosis, UniProt P9WHJ3); assay: Fluorescence Cell-Free Homogeneous Dose Retest to Identify Inhibitors of RecA-Intein Splicing Activity. [Related pubchem assays (depositor defined):AID2097, AID2223, AID489010, AID492950]; format: functional
T2 sequence (P9WHJ3 whole entry): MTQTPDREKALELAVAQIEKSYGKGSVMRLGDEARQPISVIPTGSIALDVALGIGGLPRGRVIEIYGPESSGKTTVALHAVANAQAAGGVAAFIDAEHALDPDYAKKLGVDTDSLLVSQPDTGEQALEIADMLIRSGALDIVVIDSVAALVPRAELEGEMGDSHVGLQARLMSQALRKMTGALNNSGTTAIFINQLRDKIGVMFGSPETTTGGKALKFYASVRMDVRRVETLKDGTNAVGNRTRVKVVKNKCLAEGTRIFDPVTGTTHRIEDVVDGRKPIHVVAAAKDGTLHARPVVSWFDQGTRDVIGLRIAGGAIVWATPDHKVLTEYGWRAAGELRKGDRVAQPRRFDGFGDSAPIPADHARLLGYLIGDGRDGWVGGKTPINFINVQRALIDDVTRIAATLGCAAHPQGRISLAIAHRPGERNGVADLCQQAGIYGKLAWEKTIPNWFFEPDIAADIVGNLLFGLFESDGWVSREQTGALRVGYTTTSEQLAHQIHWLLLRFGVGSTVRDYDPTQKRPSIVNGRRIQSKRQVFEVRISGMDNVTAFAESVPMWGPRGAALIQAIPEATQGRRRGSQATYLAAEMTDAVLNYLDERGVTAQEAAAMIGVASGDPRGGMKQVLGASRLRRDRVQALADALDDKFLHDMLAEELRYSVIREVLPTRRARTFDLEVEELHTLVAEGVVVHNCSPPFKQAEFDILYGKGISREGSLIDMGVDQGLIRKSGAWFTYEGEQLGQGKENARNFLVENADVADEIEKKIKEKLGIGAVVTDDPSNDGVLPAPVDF

[2] = HIV-1 AD8 envelope cell-cell fusion blockers – cherry-pick, dose response (AID 652062); format: functional, cell-based;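 note: luciferase signal from cell-cell fusion driven by HIV-1 clade B AD8 Env; potency is for inhibitors of fusion seen as a drop in luminescence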
Paired box protein Pax-8 = Paired box protein Pax-8 (Homo sapiens, UniProt Q06710); assay: PAX8 transcriptional activity inhibition in RMG-I – RMG-I cells, luciferase, cherry-pick, dose response (AID 687027); format: functional, cell-based;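 note: luciferase reporter driven by Pax8 target thyroperoxidase promoter measured by SteadyGlo luminescence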
Sequence of Paired box protein Pax-8 (Q06710 whole entry): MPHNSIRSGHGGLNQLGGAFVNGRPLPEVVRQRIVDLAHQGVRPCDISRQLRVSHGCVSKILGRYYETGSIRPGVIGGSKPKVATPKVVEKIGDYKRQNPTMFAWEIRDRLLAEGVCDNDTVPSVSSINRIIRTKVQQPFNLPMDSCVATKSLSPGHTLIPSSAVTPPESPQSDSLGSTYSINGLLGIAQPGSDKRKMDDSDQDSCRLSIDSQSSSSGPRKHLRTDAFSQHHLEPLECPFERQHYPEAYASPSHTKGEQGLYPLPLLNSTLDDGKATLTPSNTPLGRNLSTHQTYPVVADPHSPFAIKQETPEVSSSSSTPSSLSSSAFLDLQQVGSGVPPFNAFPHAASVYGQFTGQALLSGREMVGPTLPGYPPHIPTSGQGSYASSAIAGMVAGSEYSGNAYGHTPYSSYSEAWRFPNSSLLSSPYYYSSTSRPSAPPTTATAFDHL

[3] = NIH-3T3 fibroblast cytotoxicity, dose response, cytotoxicity control, cell-based, fluorescence, Alamar Blue, secondary assay (AID 2327); format: functional;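 note: NIH-3T3 mouse fibroblasts cultured with fluconazole at 8 µg/mL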
[4] = fluconazole-exposed Candida albicans growth modulators – fluorescence, retest, confirmation (AID 2467); format: functional, cell-based
[5] = molecular target: Luciferin 4-monooxygenase (Photinus pyralis, UniProt P08659); assay: inhibition of purified Photinus pyralis luciferase – biochemical, luminescence, dose response (AID 1891)
Sequence of Luciferin 4-monooxygenase (P08659 whole entry): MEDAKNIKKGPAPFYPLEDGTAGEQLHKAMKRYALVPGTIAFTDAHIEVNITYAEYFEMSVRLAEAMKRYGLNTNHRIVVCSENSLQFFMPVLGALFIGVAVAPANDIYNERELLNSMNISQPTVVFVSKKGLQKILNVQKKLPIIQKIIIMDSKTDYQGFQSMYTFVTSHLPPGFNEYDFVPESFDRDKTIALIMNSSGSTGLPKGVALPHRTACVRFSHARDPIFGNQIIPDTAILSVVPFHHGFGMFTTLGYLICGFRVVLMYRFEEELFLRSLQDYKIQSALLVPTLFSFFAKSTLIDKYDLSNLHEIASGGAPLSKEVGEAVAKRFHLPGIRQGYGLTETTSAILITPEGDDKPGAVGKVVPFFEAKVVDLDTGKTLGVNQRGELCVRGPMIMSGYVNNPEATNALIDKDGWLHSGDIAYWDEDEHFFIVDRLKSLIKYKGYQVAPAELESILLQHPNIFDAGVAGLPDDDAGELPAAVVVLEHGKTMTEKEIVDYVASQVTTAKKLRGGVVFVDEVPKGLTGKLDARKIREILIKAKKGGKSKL

[6] = Luminescence Cell-Based Dose Confirmation HTS to Identify Inhibitors of Platelet Dense Granule Release. [Related pubchem assays: 1663 (Primary HTS), 1678 (Summary of Project)]; format: functional
[7] = molecular target: T3, Heat shock factor protein 1 (Mus musculus, UniProt P38532); assay: enhancement of HSF1-driven luciferase signal – cell-based, NIH3T3, luminescence, dose retest, confirmation (AID 435004); format: functional;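 note: stress induced by proteasome inhibitor MG132 added 30 min after compound; luciferase reporter driven by HSF1 response element in NIH3T3 cells; actives raise luminescence as potentiators of the MG132 stress response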
T3 sequence (P38532 whole entry): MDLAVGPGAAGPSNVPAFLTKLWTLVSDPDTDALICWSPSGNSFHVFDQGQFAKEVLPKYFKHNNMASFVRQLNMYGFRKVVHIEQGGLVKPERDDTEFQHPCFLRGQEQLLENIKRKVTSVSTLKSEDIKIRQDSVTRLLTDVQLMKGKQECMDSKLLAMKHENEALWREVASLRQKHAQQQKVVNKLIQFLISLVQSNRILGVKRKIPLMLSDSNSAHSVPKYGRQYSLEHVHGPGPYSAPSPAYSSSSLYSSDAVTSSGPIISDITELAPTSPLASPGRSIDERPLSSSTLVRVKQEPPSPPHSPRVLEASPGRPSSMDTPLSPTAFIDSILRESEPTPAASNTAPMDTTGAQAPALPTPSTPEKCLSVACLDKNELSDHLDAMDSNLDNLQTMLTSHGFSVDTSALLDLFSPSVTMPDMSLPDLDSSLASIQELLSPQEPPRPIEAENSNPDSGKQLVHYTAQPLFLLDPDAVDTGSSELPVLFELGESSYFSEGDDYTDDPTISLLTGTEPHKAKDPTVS

[8] = Luminescence Cell-Based Dose Retest to Confirm Inhibitors of Cancer Stem Cells. [Related pubchem assays (depositor defined):AID2717, AID2721]; format: functional; settings: Homo sapiens
[9] = molecular target: T4, Ubiquitin-conjugating enzyme E2 N (Homo sapiens, UniProt P61088); format: functional;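 note: Dose-response confirmation in a TR-FRET assay detecting UBC13-driven polyubiquitin chain formation, inhibition measured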
T4 sequence (P61088 whole entry): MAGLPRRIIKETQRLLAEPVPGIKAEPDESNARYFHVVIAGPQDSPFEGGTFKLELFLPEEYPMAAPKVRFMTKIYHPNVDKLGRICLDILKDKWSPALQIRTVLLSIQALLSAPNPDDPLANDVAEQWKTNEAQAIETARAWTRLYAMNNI

[10] = reduction of Shn3 3'UTR-driven luciferase in osteoblasts – cell-based, Clone20 osteoblasts, firefly luciferase, cherry-picked, dose response (AID 624132); format: functional;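 note: firefly luciferase luminescence from reporter carrying the Shn3 3'UTR in osteoblasts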
[11] = Trypanosoma cruzi growth suppression in host cells – NIH3T3 host cells, beta-gal luminescence, confirmation (AID 2044); format: functional, cell-based;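 note: intracellular parasites grown in NIH/3T3 mouse fibroblasts as host cells; luminescent beta-galactosidase reporter signal from transgenic T. cruzi replicating inside host cells; inhibitors lower the luminescence signal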
[12] = NIH3T3 cell viability loss – ATP luminescence, mouse fibroblasts, counter-screen, dose response (AID 2010); format: functional, cell-based;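 note: cells exposed to compound for about 90 hours before reading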
[13] = molecular target: T5, Corticotropin-releasing factor receptor 2/Corticotropin-releasing factor-binding protein (Homo sapiens, UniProt P24387+Q13324); assay: activators of CRF receptor 2 with binding protein – uHTS hits, confirmation (AID 602473); format: functional; settings: read-out: EC50_Mean
T5 sequence (Q13324 whole entry): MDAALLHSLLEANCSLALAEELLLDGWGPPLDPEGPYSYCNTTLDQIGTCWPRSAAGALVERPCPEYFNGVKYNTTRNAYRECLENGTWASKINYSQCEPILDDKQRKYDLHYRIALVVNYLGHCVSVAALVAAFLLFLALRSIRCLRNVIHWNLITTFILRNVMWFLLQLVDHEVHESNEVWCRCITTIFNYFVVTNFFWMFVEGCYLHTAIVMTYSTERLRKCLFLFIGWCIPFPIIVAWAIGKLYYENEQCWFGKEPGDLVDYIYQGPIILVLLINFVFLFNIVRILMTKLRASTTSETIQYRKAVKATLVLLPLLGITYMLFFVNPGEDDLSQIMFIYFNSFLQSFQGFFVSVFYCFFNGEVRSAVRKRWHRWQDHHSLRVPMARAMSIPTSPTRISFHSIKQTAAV
T5 sequence (P24387 whole entry): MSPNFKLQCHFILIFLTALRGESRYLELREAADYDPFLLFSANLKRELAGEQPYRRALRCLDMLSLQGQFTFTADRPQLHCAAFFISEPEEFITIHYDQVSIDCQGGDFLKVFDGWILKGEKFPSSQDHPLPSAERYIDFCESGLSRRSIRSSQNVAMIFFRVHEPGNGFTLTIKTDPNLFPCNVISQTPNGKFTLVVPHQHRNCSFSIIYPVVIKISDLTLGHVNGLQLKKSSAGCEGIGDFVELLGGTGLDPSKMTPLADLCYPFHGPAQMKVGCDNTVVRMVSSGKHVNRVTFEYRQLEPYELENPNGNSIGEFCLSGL

## CC1=NN(C)C(=O)C1Cc1c(F)cccc1Cl (configuration not stated)
[1]
  AC50: 5.39 µM (active)
Protein RecA
  EC50: 0.74 µM (active)

## CN(C)Cc1cn(CC[C@@H]2CC[C@H](N)[C@H](CO)O2)nn1
[2]
  AC50: 22.9 µM (active)

## COc1ccc(/C=C2/C(=O)N(c3cccc(F)c3)N=C2C)c(OC)c1
[1]
  AC50: 4.14 µM (active)
Protein RecA
  EC50: 44.6 µM (active)

## COC(=O)C1=C(c2ccc(F)cc2OCc2ccccc2)C[C@@H]2CC[C@H]1N2C(=O)NCc1ccc(C)cc1
Paired box protein Pax-8
  AC50: 15.1 µM (active)

## Cc1ccc2nc(Cl)c3nnnn3c2c1
[3]
  EC50: 4.94 µM (inconclusive)
[4]
  EC50: 0.646 µM (active)

## COc1ccc(C(=O)n2nnc3ccccc32)cc1Br
[1]
  AC50: 24.6 µM (active)
Protein RecA
  EC50: 30 µM (active)

## OC(CNCc1cccc(Cl)c1)c1ccccc1 (configuration not stated)
[5]
  EC50: > 112 µM (not active)
[6]
  EC50: 21.2 µM (active)
[7]
  EC50: > 260 µM (inactive)

## CC1(C)CC(=O)C=C(Nc2ccc3c(c2)OCCO3)C1
[5]
  EC50: > 112 µM (not active)
[6]
  EC50: 11 µM (active)

## Cc1c(CCOC(=O)CC23CC4CC(CC(C4)C2)C3)sc[n+]1CC(=O)c1ccc(Br)cc1
[8]
  AC50: 2.42 µM (active)
[9]
  IC50: > 20 µM (inactive)
[10]
  AC50: 12.9 µM (active)

## C/[N+]([O-])=C\c1ccc([N+](=O)[O-])o1
[3]
  EC50: > 160 µM (inactive)
[4]
  EC50: 0.885 µM (active)
[11]
  EC50: 0.54 µM (active)
[12]
  EC50: > 60 µM (not active)

## O=S(=O)(Nc1ccc(-c2ccc(N3CCOCC3)nn2)cc1)c1ccc(Cl)c(Cl)c1
[5]
  EC50: 35.3 µM (active)
[6]
  EC50: > 112 µM (not active)

## Oc1ccc(C2=NN=C(NCc3ccc4c(c3)OCO4)SC2)c(O)c1
[9]
  IC50: > 20 µM (inactive)

## Nc1c(Cl)ncnc1N/N=C/c1cccc(O)c1
[5]
  EC50: 58.1 µM (active)
[6]
  EC50: 22 µM (active)

## CCN(CC)CC(=O)n1c2c(c3ccccc31)CCCC2
[5]
  EC50: > 112 µM (not active)
[6]
  EC50: > 112 µM (not active)

## O=C(CSc1cccc[n+]1[O-])CSc1cccc[n+]1[O-]
[3]
  EC50: > 160 µM (inactive)
[4]
  EC50: 3.9 µM (active)
[11]
  EC50: 6.09 µM (active)
[12]
  EC50: > 30 µM (not active)

## Cc1ccc(OCC(=O)N/N=C\c2c(C)[nH]n(-c3ccccc3)c2=O)c([N+](=O)[O-])c1
[3]
  EC50: > 150 µM (inactive)
[4]
  EC50: 6.77 µM (active)

## Oc1ccc2ccccc2c1CNc1ccccn1
[9]
  IC50: > 20 µM (inactive)

## CC[n+]1ccc2cc(OC)c(OC)cc2c1Cc1ccc(OC)c(OC)c1
[1]
  AC50: > 120 µM (inactive)
Protein RecA
  EC50: > 380 µM (inactive)

## COc1ccccc1NS(=O)(=O)c1cc(NC(=O)CCC(=O)c2cccs2)ccc1Cl
[3]
  EC50: 123 µM (active)
[4]
  EC50: 0.417 µM (active)

## CCN(C[C@H]1N[C@@](Cc2ccccc2)(C(=O)OC)[C@H]2C(=O)N(Cc3ccccc3)C(=O)[C@@H]12)C(=O)C1CCCCC1
[13]
  EC50: 5.33 µM (active)

## COc1cc2c(cc1OC)C(c1c(Cl)cccc1Cl)NC(=O)C2 (configuration not stated)
[13]
  EC50: 10.9 µM (active)

## Cc1cccc(OCC(=O)Oc2ccc(Cl)cc2)c1
[1]
  AC50: 9.75 µM (active)
Protein RecA
  EC50: 35.1 µM (active)

## COc1nc2ccccc2nc1OC
[5]
  EC50: > 112 µM (not active)
[6]
  EC50: > 112 µM (not active)

## CN(C)/C=N/c1nccc(-c2cccs2)n1
[13]
  EC50: > 53 µM (inactive)

## Cn1c(SCC(=O)NCC2CCCO2)ncc(C(=O)Nc2ccccc2)c1=O (configuration not stated)
[1]
  AC50: 28 µM (active)
Protein RecA
  EC50: 3.38 µM (active)

## Cc1ccc(-n2nc(C)c(/C=N/NC(=O)c3ccc([N+](=O)[O-])cc3)c2O)c(C)c1
[3]
  EC50: 11.7 µM (active)
[4]
  EC50: 1.71 µM (active)
[1]
  AC50: 6.38 µM (active)
Protein RecA
  EC50: 21.2 µM (active)

## O=C(Nc1ccc(C(=O)N2CCN(c3ccc(Cl)cc3)CC2)cc1)C1=CSCCO1
[5]
  EC50: 31.2 µM (active)
[6]
  EC50: > 112 µM (not active)

## C/C(CC(=O)Nc1ccc(Cl)cn1)=N\NC(=O)Cc1cccs1
[1]
  AC50: 30.5 µM (active)
Protein RecA
  EC50: 5.12 µM (active)
